According to PubChem BioAssay AID334 (DTP/NCI, 2004):
Several values for one entry are separate records, joined by “and”; a condition that tells them apart may be missing. Identical values can stand only once. Inconclusive results and toxic doses are left out.

System: CD2F1 mice, intracerebral P388 leukemia, median survival T/C%
Experiment: NCI In Vivo Anticancer Drug Screen. Data for tumor model P388 Leukemia (intracerebral) in CD2F1 (CDF1) mice
Details: endpoint: median survival time, higher = longer survival
Description: The antitumor activity of compounds was measured in mice bearing transplantable tumors. Survival or tumor size were measured and the results are expressed as the measurement made in the treated group (T) divided by the measurement made in the vehicle treated control group (C). The tumor model used in this assay is P388 Leukemia (intracerebral) in CD2F1 (CDF1) mice

[1] = dose: 5.0 mg/kg/injection, schedule: Q01DX009 (ip), vehicle: saline

For `COCC(O)Cn1ccnc1[N+](=O)[O-]` (stereo not given), the T/C (dose: 32.0 mg/kg/injection, schedule: Q01DX009 (ip), vehicle: Klucel (hydroxypropylcellulose) (HPC)) was 113 % of control, the T/C (dose: 64.0 mg/kg/injection, schedule: Q01DX009 (ip), vehicle: Klucel (hydroxypropylcellulose) (HPC)) was 102 % of control and the T/C (dose: 128.0 mg/kg/injection, schedule: Q01DX009 (ip), vehicle: Klucel (hydroxypropylcellulose) (HPC)) was 96 % of control. For the same compound, the T/C (dose: 256.0 mg/kg/injection, schedule: Q01DX009 (ip), vehicle: Klucel (hydroxypropylcellulose) (HPC)) was 102 % of control and the T/C (dose: 512.0 mg/kg/injection, schedule: Q01DX009 (ip), vehicle: Klucel (hydroxypropylcellulose) (HPC)) was 102 % of control.

`O=C1NC2(CCCCC2)C(=O)N1CCN(CCCl)CCCl` was tested, and the T/C (dose: 1.25 mg/kg/injection, schedule: Q01DX005 (iv), vehicle: clinical formulation) was 112 % of control, the T/C (dose: 1.25 mg/kg/injection, schedule: Q01DX009 (ip), vehicle: clinical formulation) was 103 % of control and the T/C (dose: 1.25 mg/kg/injection, schedule: Q01DX009 (ip), vehicle: saline with Tween-80) was 98 % of control. For the same compound, the T/C (dose: 1.5 mg/kg/injection, schedule: Q01DX009 (ip), vehicle: saline) was 107 % of control, the T/C (dose: 2.5 mg/kg/injection, schedule: Q01DX005 (iv), vehicle: clinical formulation) was 106 % of control and the T/C (dose: 2.5 mg/kg/injection, schedule: Q01DX009 (ip), vehicle: clinical formulation) was 101 % of control. For the same compound, the T/C (dose: 2.5 mg/kg/injection, schedule: Q01DX009 (ip), vehicle: saline with Tween-80) was 110 % of control, the T/C (dose: 5.0 mg/kg/injection, schedule: Q01DX005 (iv), vehicle: clinical formulation) was 160 % of control and the T/C (dose: 5.0 mg/kg/injection, schedule: Q01DX009 (ip), vehicle: clinical formulation) was 103 % of control. For the same compound, the T/C (dose: 5.0 mg/kg/injection, schedule: Q01DX009 (ip), vehicle: saline with Tween-80) was 112 % of control, the T/C (dose: 6.0 mg/kg/injection, schedule: Q01DX009 (ip), vehicle: saline) was 117 % of control and the T/C (dose: 10.0 mg/kg/injection, schedule: Q01DX009 (ip), vehicle: saline with Tween-80) was 124 % of control. For the same compound, the T/C (dose: 20.0 mg/kg/injection, schedule: Q01DX009 (ip), vehicle: saline with Tween-80) was 103 % of control.

`C[C@]1(O)CC[C@H]2[C@@H]3CCC4=CC(=O)CC[C@]4(C)[C@@]3(F)[C@@H](O)C[C@@]21C` was tested, and the T/C (dose: 8.0 mg/kg/injection, schedule: Q01DX009 (ip), vehicle: saline with Tween-80) was 100 % of control and 105 % of control, the T/C (dose: 16.0 mg/kg/injection, schedule: Q01DX009 (ip), vehicle: saline with Tween-80) was 91 % of control and 109 % of control and the T/C (dose: 32.0 mg/kg/injection, schedule: Q01DX009 (ip), vehicle: saline with Tween-80) was 96 % of control and 106 % of control. For the same compound, the T/C (dose: 64.0 mg/kg/injection, schedule: Q01DX009 (ip), vehicle: saline with Tween-80) was 95 % of control and 104 % of control, the T/C (dose: 128.0 mg/kg/injection, schedule: Q01DX009 (ip), vehicle: saline with Tween-80) was 91 % of control and 104 % of control and the T/C (dose: 256.0 mg/kg/injection, schedule: Q01DX009 (ip), vehicle: saline with Tween-80) was 96 % of control and 106 % of control. For the same compound, the T/C (dose: 512.0 mg/kg/injection, schedule: Q01DX009 (ip), vehicle: saline with Tween-80) was 89 % of control and 104 % of control.

In the case of `c1ccc([C@H]2CN3CCSC3=N2)cc1`, the T/C [1] is reported as 113 % of control and 101 % of control and 102 % of control, the T/C (dose: 10.0 mg/kg/injection, schedule: Q01DX005 (ip), vehicle: saline) is reported as 105 % of control and 107 % of control and the T/C (dose: 10.0 mg/kg/injection, schedule: Q01DX009 (ip), vehicle: saline) is reported as 97 % of control and 100 % of control and 106 % of control. The T/C (dose: 20.0 mg/kg/injection, schedule: Q01DX005 (ip), vehicle: saline) was 98 % of control and 102 % of control, the T/C (dose: 20.0 mg/kg/injection, schedule: Q01DX009 (ip), vehicle: saline) was 113 % of control and 92 % of control and 103 % of control and the T/C (dose: 40.0 mg/kg/injection, schedule: Q01DX005 (ip), vehicle: saline) was 97 % of control.

`O=C1C=CN(C2OC(CO)C(O)C2O)C(=O)C1` (stereo not given) was tested, and the T/C (dose: 12.5 mg/kg/injection, schedule: Q01DX009 (ip), vehicle: saline) was 112 % of control, the T/C (dose: 25.0 mg/kg/injection, schedule: Q01DX009 (ip), vehicle: saline) was 106 % of control and the T/C (dose: 50.0 mg/kg/injection, schedule: Q01DX009 (ip), vehicle: saline) was 104 % of control. For the same compound, the T/C (dose: 100.0 mg/kg/injection, schedule: Q01DX009 (ip), vehicle: saline) was 106 % of control, the T/C (dose: 200.0 mg/kg/injection, schedule: Q01DX009 (ip), vehicle: saline) was 94 % of control and the T/C (dose: 400.0 mg/kg/injection, schedule: Q01DX009 (ip), vehicle: saline) was 94 % of control.

For `CCCCCC(=O)NC(Cc1ccc(N(CCCl)CCCl)cc1)C(=O)O` (stereo not given), the T/C (dose: 1.3 mg/kg/injection, schedule: Q03HX008 (ip), vehicle: saline) was 94 % of control, the T/C (dose: 2.6 mg/kg/injection, schedule: Q03HX008 (ip), vehicle: saline) was 105 % of control and the T/C (dose: 5.3 mg/kg/injection, schedule: Q03HX008 (ip), vehicle: saline) was 105 % of control. For the same compound, the T/C (dose: 10.6 mg/kg/injection, schedule: Q03HX008 (ip), vehicle: saline) was 100 % of control and the T/C (dose: 21.2 mg/kg/injection, schedule: Q03HX008 (ip), vehicle: saline) was 115 % of control.

In the case of `CC1(C)N=C(N)N=C(N)N1c1ccc(CCCCc2ccc(S(=O)(=O)F)cc2Cl)c(Cl)c1`, the T/C (dose: 12.5 mg/kg/injection, schedule: Q01DX009 (ip), vehicle: saline with Tween-80) is reported as 97 % of control, the T/C (dose: 50.0 mg/kg/injection, schedule: Q01DX009 (ip), vehicle: saline with Tween-80) is reported as 116 % of control and the T/C (dose: 100.0 mg/kg/injection, schedule: Q01DX009 (ip), vehicle: saline with Tween-80) is reported as 96 % of control. The T/C (dose: 133.0 mg/kg/injection, schedule: Q04DX003 (ip), vehicle: saline with Tween-80) was 102 % of control, the T/C (dose: 200.0 mg/kg/injection, schedule: Q04DX003 (ip), vehicle: saline with Tween-80) was 108 % of control and the T/C (dose: 300.0 mg/kg/injection, schedule: Q04DX003 (ip), vehicle: saline with Tween-80) was 95 % of control.

`CC[C@H]1CN2CCc3cc(OC)c(OC)cc3[C@@H]2C[C@@H]1C[C@H]1NCCc2cc(OC)c(OC)cc21` was tested, and the T/C (dose: 2.0 mg/kg/injection, schedule: Q01DX005 (ip), vehicle: Klucel (hydroxypropylcellulose) (HPC)) was 113 % of control and 99 % of control, the T/C (dose: 4.0 mg/kg/injection, schedule: Q01DX005 (ip), vehicle: Klucel (hydroxypropylcellulose) (HPC)) was 94 % of control and 100 % of control and the T/C (dose: 8.0 mg/kg/injection, schedule: Q01DX005 (ip), vehicle: Klucel (hydroxypropylcellulose) (HPC)) was 119 % of control and 100 % of control.

For `CN(Cc1cnc2nc(N[Si](C)(C)C)nc(N[Si](C)(C)C)c2n1)c1ccc(C(=O)NC(CCC(=O)O[Si](C)(C)C)C(=O)O[Si](C)(C)C)cc1` (stereo not given), the T/C (dose: 0.63 mg/kg/injection, schedule: Q01DX009 (ip), vehicle: olive oil, sesame oil, peanut oil) was 110 % of control, the T/C (dose: 0.63 mg/kg/injection, schedule: Q01DX009 (ip), vehicle: saline) was 90 % of control and the T/C (dose: 1.25 mg/kg/injection, schedule: Q01DX009 (ip), vehicle: olive oil, sesame oil, peanut oil) was 110 % of control. The T/C (dose: 1.25 mg/kg/injection, schedule: Q01DX009 (ip), vehicle: saline) was 100 % of control, the T/C (dose: 1.9 mg/kg/injection, schedule: Q04DX003 (ip), vehicle: saline) was 95 % of control and the T/C (dose: 2.5 mg/kg/injection, schedule: Q01DX009 (ip), vehicle: saline) was 100 % of control. For the same compound, the T/C (dose: 3.8 mg/kg/injection, schedule: Q04DX003 (ip), vehicle: saline) was 95 % of control, the T/C [1] was 95 % of control and the T/C (dose: 15.0 mg/kg/injection, schedule: Q04DX003 (ip), vehicle: saline) was 110 % of control. The T/C (dose: 30.0 mg/kg/injection, schedule: Q04DX003 (ip), vehicle: saline) was 120 % of control and the T/C (dose: 60.0 mg/kg/injection, schedule: Q04DX003 (ip), vehicle: saline) was 115 % of control.

`CO[C@H]1C[C@@H]2CC[C@@H](C)[C@@](O)(O2)C(=O)C(=O)N2CCCC[C@H]2C(=O)O[C@H]([C@H](C)C[C@@H]2CC[C@@H](O)[C@H](OC)C2)CC(=O)[C@H](C)C=C(C)[C@@H](O)[C@@H](OC)C(=O)[C@H](C)C[C@H](C)/C=C/C=C/C=C1C` was tested, and the T/C (dose: 400.0 mg/kg/injection, schedule: Q01DX009 (ip), vehicle: gum acacia) was 107 % of control.

With `N[C@@H](Cc1ccc(N(CCCl)CCCl)cc1)C(=O)O` the T/C (dose: 0.25 mg/kg/injection, schedule: Q03HX008 (ip), vehicle: saline) was 105 % of control and the T/C (dose: 0.5 mg/kg/injection, schedule: Q03HX008 (ip), vehicle: saline) was 115 % of control.
